Laboratory results reported in PubChem BioAssay (NCI).
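Growth conditions: 96-well plates. Treatment: test compound, 48 hours, 5 concentrations. Analysis: linear interpolation between bracketing concentrations; unreached endpoints set to highest concentration. The concentration for 50% growth inhibition is given as GI50. At the TGI there is no net growth.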

How the values were obtained:
Experiment in all cases: DTP human tumour cell line panel, 48 h
MDA-MB-231 breast = test system: MDA-MB-231 breast
MALME-3M melanoma = test system: MALME-3M melanoma
TK-10 renal = test system: TK-10 renal
HOP-62 NSCLC = test system: HOP-62 NSCLC
DU-145 prostate = test system: DU-145 prostate
KM12 colon = test system: KM12 colon
HOP-92 NSCLC = test system: HOP-92 NSCLC
A549 NSCLC = test system: A549 NSCLC
RXF 393 renal = test system: RXF 393 renal
OVCAR-5 ovarian = test system: OVCAR-5 ovarian

Structure (SMILES) | GI50 (MDA-MB-231 breast) | TGI (MDA-MB-231 breast) | GI50 (MALME-3M melanoma) | TGI (MALME-3M melanoma) | GI50 (TK-10 renal) | TGI (TK-10 renal) | GI50 (HOP-62 NSCLC) | TGI (HOP-62 NSCLC) | GI50 (DU-145 prostate) | TGI (DU-145 prostate) | GI50 (KM12 colon) | TGI (KM12 colon) | GI50 (HOP-92 NSCLC) | TGI (HOP-92 NSCLC) | GI50 (A549 NSCLC) | TGI (A549 NSCLC) | GI50 (RXF 393 renal) | TGI (RXF 393 renal) | GI50 (OVCAR-5 ovarian) | TGI (OVCAR-5 ovarian)
COc1ccc(C(=O)/C=C/c2ccc(C)cc2)cc1OC | 14.3 µM | 33.1 µM | 15.9 µM | 36 µM | 16.4 µM | 37.7 µM | 14.6 µM | 27.8 µM | 3.2 µM | 14.4 µM | 5.68 µM | 19 µM | 12.6 µM | 27 µM | 11.2 µM | 26 µM | 12.2 µM | 26.4 µM | 16.1 µM | 29.6 µM
S=C(Nc1ccc(Br)cc1)Nc1ccc(Br)cc1 | 25.5 µM | > 100 µM | 11.7 µM | > 100 µM | 5.38 µM | > 100 µM | 83.9 µM | > 100 µM | 6.41 µM | > 100 µM | 3.63 µM | > 100 µM | 2.72 µM | 9.13 µM | 5.8 µM | > 100 µM | > 100 µM | > 100 µM | > 100 µM | > 100 µM
COc1cc(NC(N)=NCCC(C)(C)Oc2ccc(C(F)(F)F)cc2)ncc1C#N | 1.75 µM | 3.21 µM | 1.81 µM | 3.44 µM | 1.54 µM | 2.91 µM | 1.75 µM | 3.2 µM | 1.72 µM | 3.12 µM | 1.68 µM | 3.17 µM | 1.38 µM | 2.8 µM | 1.73 µM | 3.18 µM | 1.68 µM | 3.11 µM | 1.88 µM | 3.36 µM
CC(=O)O[C@H]1CC[C@@]2(C)C(=CC[C@H]3[C@@H]4CC[C@H](c5cc(C(F)(F)F)n(C(C)=O)n5)[C@@]4(C)CC[C@@H]32)C1 |  | 14.8 µM |  | > 52.8 µM |  | 14.9 µM |  | 21.2 µM |  | 23.5 µM |  | 20.9 µM |  | 6.43 µM |  | 20.5 µM |  | 17.8 µM |  | 22.1 µM
Cc1nn(-c2nc3ccccc3[nH]2)c(N)c1-c1ccc(Cl)cc1 | 4.5 µM | > 100 µM | 4.69 µM | > 100 µM | 4.51 µM | > 100 µM | 7.29 µM | > 100 µM | 6.86 µM | > 100 µM | 4.39 µM | > 100 µM | 3.28 µM | 75.4 µM | 2.9 µM | > 100 µM | 4.26 µM | 46.4 µM | 46.7 µM | > 100 µM
COc1ccc(S(=O)(=O)N2CC(C)(C)CN(S(=O)(=O)c3ccc(OC)cc3)C2C(=O)NO)cc1 | > 16.2 µM | > 20 µM | 5.93 µM | > 20 µM | 19.5 µM | > 20 µM | > 20 µM | > 20 µM | > 20 µM | > 20 µM | > 20 µM | > 20 µM | 8.14 µM | > 20 µM | > 20 µM | > 20 µM | > 14.2 µM | > 20 µM | > 20 µM | > 20 µM
C#CCOc1cccc(-c2ncnc3cc(NC(=O)CCl)ccc23)c1 | 0.481 µM | 4.57 µM | 1.28 µM | 3.59 µM | 1.26 µM | 2.81 µM | 2.36 µM | 7.18 µM | 1.16 µM | 2.47 µM | 0.622 µM | 3.2 µM | 1.42 µM | 3.32 µM | 0.451 µM | 3.96 µM | 1.4 µM | 3.16 µM | 1.19 µM | 2.86 µM
OCc1ccc(-c2ccc(-c3ccc(CO)o3)[se]2)o1 | > 83.7 µM | > 100 µM | > 100 µM | > 100 µM | > 100 µM | > 100 µM | > 80.4 µM | > 100 µM | > 94 µM | > 100 µM | > 74.3 µM | > 100 µM | 48.2 µM | > 100 µM | > 59.8 µM | > 100 µM | > 100 µM | > 100 µM | 0.629 µM | > 100 µM
COc1cc(C#Cc2ccc(=O)oc2C#Cc2ccccc2)cc(OC)c1OC | 2.84 µM | 7.87 µM | 2.99 µM | 7.21 µM | 4.57 µM | 13 µM | 12.2 µM | 30.9 µM | 3.12 µM | 10.7 µM | 15.1 µM | 44.8 µM | 5.13 µM | 12.4 µM | 10.3 µM | 43.9 µM | 2.21 µM | 4.34 µM | 5.74 µM | 12.1 µM
